# According to US20260083851A1 (AVILAR THERAPEUTICS, INC., priority 2022, published 2026):
# Where two headings read alike, the source gives them in different places.
# Target: T1, ASGP receptor (biotinylated ASGPR) (Homo sapiens, UniProt P07306)
# T1 construct: biotin (biotinylated)
# T1 sequence (P07306 1-291): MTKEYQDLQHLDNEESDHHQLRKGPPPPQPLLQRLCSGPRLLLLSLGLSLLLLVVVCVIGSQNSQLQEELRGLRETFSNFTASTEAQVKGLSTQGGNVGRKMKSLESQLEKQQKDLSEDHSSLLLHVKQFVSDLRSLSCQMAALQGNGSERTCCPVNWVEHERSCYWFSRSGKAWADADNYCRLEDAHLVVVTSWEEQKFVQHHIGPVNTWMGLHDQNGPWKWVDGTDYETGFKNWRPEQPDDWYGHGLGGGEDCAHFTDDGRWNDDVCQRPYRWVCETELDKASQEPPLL
# Format: binding
# Conditions: SPR, Biacore 8K, 25° C., read-out: ASGPR KD
SMILES,Kd (Table 1C) [µM],Kd (Table 1D) [µM],further results
O=S(=O)(C[C@H]1OC[C@H](Oc2cccc(C(F)(F)F)n2)[C@@H](O)[C@H]1O)c1ccccc1 [A310],< 10,–,–
[O-][S+](C[C@H]1OC[C@H](Oc2cccc(C(F)(F)F)n2)[C@@H](O)[C@H]1O)c1ccccc1 (stereo partly shown) [A311],< 10,–,–
[O-][n+]1c(O[C@H]2CO[C@H](CSc3ccccc3)[C@H](O)[C@@H]2O)cccc1C(F)(F)F [A312],< 10,–,–
CC[C@]1(COc2ccc(C(=O)O)nn2)O[C@H](O)[C@H](NC(=O)C(F)(F)F)[C@@H](O)[C@H]1O [A313],< 10,–,–
CC[C@]1(COc2ccc(C(=O)O)nn2)O[C@H](O)[C@H](Nc2cccc(C(F)(F)F)n2)[C@@H](O)[C@H]1O [A314],< 10,–,–
COC(=O)c1ccc(OC[C@H]2O[C@H](C)[C@H](O)[C@H](O)[C@H]2Oc2cccc(C(F)(F)F)n2)nn1 [A315],< 10,–,–
CC[C@H]1O[C@H](C)[C@H](O)[C@H](O)[C@H]1Oc1cccc(C(F)(F)F)n1 [A316],< 10,–,–
O=C(O)c1ccc(OC[C@H]2OC[C@H](Nc3cccc(C(F)(F)F)n3)[C@@H](O)[C@H]2O)nn1 [A317],< 10,–,–
C[C@H]1O[C@H](CCCO)[C@H](Oc2cccc(C(F)(F)F)n2)[C@@H](O)[C@H]1O [A318],< 10,–,–
C[C@H]1O[C@H](C#CCOc2cccnn2)[C@H](Oc2cccc(C(F)(F)F)n2)[C@@H](O)[C@H]1O [A319],< 10,–,–
COC(=O)c1ccc(C#C[C@H]2O[C@H](C)[C@H](O)[C@H](O)[C@H]2Oc2cccc(C(F)(F)F)n2)nn1 [A321],< 10,–,–
C[C@H]1O[C@H](C#CCOc2ccc(C(=O)O)nn2)[C@H](Oc2cccc(C(F)(F)F)n2)[C@@H](O)[C@H]1O [A322],< 10,–,–
Nc1ccc(OC[C@H]2OC[C@H](Oc3cccc(C(F)(F)F)n3)[C@@H](O)[C@H]2O)nn1 [A323],< 10,–,–
O=C(O)c1ccc(OC[C@H]2OC[C@H](Nc3nccc(C(F)(F)F)n3)[C@@H](O)[C@H]2O)nn1 [A325],< 10,–,–
NCCOCCOCC(=O)NC[C@H]1OC[C@H](Oc2cccc(C(F)(F)F)n2)[C@@H](O)[C@H]1O [A326],< 10,–,–
OC[C@H]1O[C@H](c2ccccc2)[C@H](Oc2cccc(C(F)(F)F)n2)[C@@H](O)[C@H]1O [A329],< 10,–,–
O[C@@H]1[C@H](O)[C@@H](Oc2cccc(C(F)(F)F)n2)[C@@H](c2ccccc2)O[C@@H]1C(F)F [A330],< 10,–,–
C[C@H]1O[C@H](C#Cc2ccc(C(=O)O)nn2)[C@H](Oc2cccc(C(F)(F)F)n2)[C@@H](O)[C@H]1O [A331],< 10,–,–
C[C@H]1O[C@H](c2cc[nH]n2)[C@H](Oc2cccc(C(F)(F)F)n2)[C@@H](O)[C@H]1O [A332],< 10,–,–
COC(=O)/C=C/[C@H]1O[C@H](C)[C@H](O)[C@H](O)[C@H]1Oc1cccc(C(F)(F)F)n1 [A333],< 10,–,–
CC(=O)[C@H]1O[C@H](C)[C@H](O)[C@H](O)[C@H]1Oc1cccc(C(F)(F)F)n1 [A334],< 10,–,–
C[C@H]1O[C@@H](c2ncnc3c2ncn3Cc2ccccc2)[C@H](Oc2cccc(C(F)(F)F)n2)[C@@H](O)[C@H]1O [A335],< 10,–,–
C[C@H]1O[C@@H](c2ccccn2)[C@H](Oc2cccc(C(F)(F)F)n2)[C@@H](O)[C@H]1O [A336],< 10,–,–
C[C@H]1O[C@@H](c2ncncc2F)[C@H](Oc2cccc(C(F)(F)F)n2)[C@@H](O)[C@H]1O [A337],< 10,–,–
C[C@H]1O[C@H](c2ncncc2F)[C@H](Oc2cccc(C(F)(F)F)n2)[C@@H](O)[C@H]1O [A338],< 10,–,–

SMILES,Kd (Table 1C) [µM],Kd (Table 1D) [µM],further results
CC(O)[C@H]1O[C@H](C)[C@H](O)[C@H](O)[C@H]1Oc1cccc(C(F)(F)F)n1 (stereo partly shown) [A339],< 10,–,–
C[C@H]1O[C@H](c2ccc3c(c2)CCC3)[C@H](Oc2cccc(C(F)(F)F)n2)[C@@H](O)[C@H]1O [A340],< 10,–,–
C[C@H]1O[C@H](c2ccc3c(c2)CNC3)[C@H](Oc2cccc(C(F)(F)F)n2)[C@@H](O)[C@H]1O [A341],< 10,–,–
C[C@H]1O[C@H](c2cccc3ccccc23)[C@H](Oc2cccc(C(F)(F)F)n2)[C@@H](O)[C@H]1O [A342],< 10,–,–
C[C@H]1O[C@H](c2ccc3ccccc3n2)[C@H](Oc2cccc(C(F)(F)F)n2)[C@@H](O)[C@H]1O [A343],< 10,–,–
C[C@H]1O[C@@H](c2ccc3ccccc3n2)[C@H](Oc2cccc(C(F)(F)F)n2)[C@@H](O)[C@H]1O [A344],< 10,–,–
O[C@@H]1[C@@H](Oc2cccc(C(F)(F)F)n2)CSC[C@@H]1O [A345],< 10,–,–
C[C@H]1O[C@H](c2cc(-c3ccccc3)no2)[C@H](Oc2cccc(C(F)(F)F)n2)[C@@H](O)[C@H]1O [A346],–,< 10,–
Cc1nnc(N2C[C@H](Oc3cccc(C(F)(F)F)n3)[C@@H](O)[C@@H](O)C2)s1 [A351],–,< 10,–
Cc1nnc(N2C[C@H](Oc3cccc(C(F)(F)F)n3)[C@@H](O)[C@@H](O)C2)o1 [A352],–,< 10,–
O[C@@H]1[C@@H](Oc2cccc(C(F)(F)F)n2)CN(c2noc(-c3ccccc3)n2)C[C@@H]1O [A353],–,< 10,–
O=C(OCc1ccccc1)N1C[C@H](O)[C@H](O)[C@@H]([S@@+]([O-])c2cccc(C(F)(F)F)n2)C1 [A354],–,10 to 100,–
O=C(OCc1ccccc1)N1C[C@H](O)[C@H](O)[C@@H]([S@+]([O-])c2cccc(C(F)(F)F)n2)C1 [A355],–,–,"Kd (Table 1D, numeric bound): > 30 µM"
O=C(OCc1ccccc1)N1C[C@H](O)[C@H](O)[C@@H](S(=O)(=O)c2cccc(C(F)(F)F)n2)C1 [A356],–,–,"Kd (Table 1D, numeric bound): > 30 µM"
CC(=O)NNC(=O)N1C[C@H](Oc2cccc(C(F)(F)F)n2)[C@@H](O)[C@@H](O)C1 [A357],–,< 10,–
O=C(OCc1ccccc1)N1C[C@H](O)[C@H](O)[C@@H](S(=O)(=O)c2cncc(C(F)(F)F)n2)C1 [A358],–,–,"Kd (Table 1D, numeric bound): > 30 µM"
O[C@@H]1[C@@H](Oc2cccc(C(F)(F)F)n2)CN(c2ncon2)C[C@@H]1O [A359],–,< 10,–
CCOC(=O)c1nc(N2C[C@H](Oc3cccc(C(F)(F)F)n3)[C@@H](O)[C@@H](O)C2)no1 [A360],–,< 10,–
O=C(OCc1ccccc1)N1C[C@H](Nc2cncc(C(F)(F)F)n2)[C@@H](O)[C@@H](O)C1 [A361],–,< 10,–
O[C@@H]1[C@@H](Nc2cncc(C(F)(F)F)n2)CNC[C@@H]1O [A362],–,< 10,–
CN1C[C@H](Nc2cncc(C(F)(F)F)n2)[C@@H](O)[C@@H](O)C1 [A363],–,< 10,–
O=C(c1ccc(Cc2ccccc2)cc1)N1C[C@H](Nc2cncc(C(F)(F)F)n2)[C@@H](O)[C@@H](O)C1 [A364],–,< 10,–
CN(c1cncc(C(F)(F)F)n1)[C@H]1CNC[C@H](O)[C@@H]1O [A365],–,< 10,–
CCN1C[C@H](O)[C@H](O)[C@@H](N(C)c2cncc(C(F)(F)F)n2)C1 [A366],–,< 10,–
O[C@@H]1[C@@H](Nc2cncc(C(F)(F)F)n2)CN(CC(F)(F)F)C[C@@H]1O [A367],–,< 10,–

SMILES,Kd (Table 1C) [µM],Kd (Table 1D) [µM],further results
CN1C[C@H](Nc2ccc(C(F)(F)F)cn2)[C@@H](O)[C@@H](O)C1 [A368],–,–,"Kd (Table 1D, numeric bound): > 30 µM"
O=C(OCc1ccccc1)N1C[C@H](Nc2nccc(C(F)(F)F)n2)[C@@H](O)[C@@H](O)C1 [A369],–,< 10,–
O[C@@H]1[C@@H](Nc2nccc(C(F)(F)F)n2)CNC[C@@H]1O [A370],–,10 to 100,–
O=C(OCc1ccccc1)N1CC(Nc2cn[nH]c2)[C@@H](O)[C@@H](O)C1 (stereo partly shown) [A371],–,–,"Kd (Table 1D, numeric bound): > 30 µM"
CN1C[C@H](Nc2nccc(C(F)(F)F)n2)[C@@H](O)[C@@H](O)C1 [A372],–,< 10,–
O[C@@H]1[C@@H](Nc2cncc(C(F)(F)F)n2)CN(Cc2ccccc2)C[C@@H]1O [A373],–,< 10,–
O=C(OCc1ccccc1)N1C[C@H](Nc2ccc(C(F)(F)F)cn2)[C@@H](O)[C@@H](O)C1 [A374],–,–,"Kd (Table 1D, numeric bound): > 30 µM"
O=C(OCc1ccccc1)N1C[C@H](Nc2ccnc(C(F)(F)F)n2)[C@@H](O)[C@@H](O)C1 [A375],–,< 10,–
O=C(c1ccc(-c2ccccc2)cc1)N1C[C@H](Nc2cncc(C(F)(F)F)n2)[C@@H](O)[C@@H](O)C1 [A376],–,< 10,–
O[C@@H]1[C@@H](Nc2cncc(C(F)(F)F)n2)CN(c2ccc(C(F)(F)F)cn2)C[C@@H]1O [A377],–,< 10,–
O=C(c1ccc(C(F)(F)F)cn1)N1C[C@H](Nc2cncc(C(F)(F)F)n2)[C@@H](O)[C@@H](O)C1 [A378],–,< 10,–
O=C(c1ccc(C(F)(F)F)cc1F)N1C[C@H](Nc2cncc(C(F)(F)F)n2)[C@@H](O)[C@@H](O)C1 [A379],–,< 10,–
O=C(OCc1ccccc1)N1C[C@H](Nc2nc(Cl)nn3cccc23)[C@@H](O)[C@@H](O)C1 [A380],–,< 10,–
O=C(O)COCCOCC(=O)C1C[C@H](Nc2cncc(C(F)(F)F)n2)[C@@H](O)[C@@H](O)C1 (stereo partly shown) [A381],–,< 10,–
O[C@@H]1[C@@H](Nc2nc(Cl)nn3cccc23)CNC[C@@H]1O [A382],–,10 to 100,–
O=C(O)c1ccc(-c2ccc(C(=O)N3C[C@H](Nc4cncc(C(F)(F)F)n4)[C@@H](O)[C@@H](O)C3)cc2)cc1 [A383],–,< 10,–
O=C(Oc1ccc(-c2ccccc2)cc1)N1C[C@H](Nc2cncc(C(F)(F)F)n2)[C@@H](O)[C@@H](O)C1 [A384],–,< 10,–
O=C(OCc1ccccc1)N1C[C@H](Oc2cncc(C(F)(F)F)n2)[C@@H](O)[C@@H](O)C1 [A385],–,< 10,–
O=C(OCc1ccccc1)N1C[C@H](Oc2cccc(C(F)(F)F)n2)[C@@H](O)[C@@H](O)C1 [A386],–,< 10,–
O=C(O)c1ccc(-c2ccc(CN3C[C@H](Nc4cncc(C(F)(F)F)n4)[C@@H](O)[C@@H](O)C3)cc2)cc1 [A387],–,< 10,–
O[C@@H]1[C@@H](Oc2cccc(C(F)(F)F)n2)CNC[C@@H]1O [A388],–,< 10,–
O[C@@H]1[C@@H](Oc2cncc(C(F)(F)F)n2)CNC[C@@H]1O [A389],–,< 10,–
O=C(OCc1ccccc1)N1C[C@H](Nc2cccc(C(F)(F)F)n2)[C@@H](O)[C@@H](O)C1 [A390],–,< 10,–
